Assay [1] has as its target c-Kit (Homo sapiens (Human), UniProt P10721). Description: Inhibition of c-Kit kinase activity (HTRF KinEASE-TK). The conditions noted are these: biochemical, HTRF KinEASE-TK. The assay is classed as biochemical. The method in brief: (§1)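 Phosphorylation of biotinylated TK peptide read by HTRF (665/620 nm ratio) after 120 min at rt, following 1 h enzyme–compound preincubation. ATP (2× mix): 20 μM CSF1R, 16 μM c-Kit, 40 μM PDGFRβ, 1 μM PDGFRα; MgCl2 10 mM except c-Kit 5 mM. 22-point 1:2 titration; four-parameter IC50.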

Assay [2] has as its system Phospho-KIT (Y703) in M07e cells. The assay is described as follows: Phospho-KIT (Y703) cellular assay in M07e cells. Conditions: M-07e; Phospho-KIT (Y703), M07e cells; read-out: M07e Cell IC50. The assay is classed as cell-based. As for the experimental part:
Phospho-KIT (Y703) Cellular Assay in M07e Cells
The day prior to assay, M07e cells (DSMZ, catalog #ACC 104) were serum starved. Cells were centrifuged and cell pellet resuspended in OptiMEM (Gibco, catalog #31985062) to a density of 1×10^6-2.5×10^6 cells per mL. Cells were then incubated overnight at 5% CO2 and 37° C. in an appropriately sized flask. On the day of the experiment, an 11 point, half log titration of test compound was pre-dispensed into 96-well round bottom polypropylene plates (Corning, catalog #3365). The serum starved M07e cells were centrifuged and resuspended to a cell density of 1×10^6 cells per mL with DPBS (Gibco, catalog #14190-144). Live/Dead Green Fixable viability dye (Invitrogen, catalog #L34970) was added as 1 μL/1 mL of cell suspension. Cells were then incubated in the dark at 4° C. for 30 min. Cells were washed by centrifugation and resuspension with DPBS+0.5% BSA (Gemini Bio Products, catalog #700110/100, 30% BSA solution). Cells were resuspended, separated into two equal volumes and again centrifuged. Cell pellets were resuspended with OptiMEM™ to a cell density of 1×10^6 cells per mL. Cells were then added to the appropriate compound plate at 100,000 cells per well in 100 μL and mixed. Plates were incubated at 5% CO2 and 37° C. for 50 min. Stem Cell Factor, SCF (R&D Systems, #255-SC/CF) was diluted in OptiMEM to 1 μg/mL and added to all wells as 10 μL for a final concentration of 90.9 ng/mL. Plates were incubated at 5% CO2 and 37° C. for 10 min. Incubation was stopped by addition of 110 μL 4% paraformaldehyde solution in PBS (Life Technologies, catalog #J19943.K2). Plates were incubated at rt for at least 15 min. Plates were then centrifuged and supernatant removed by flicking. Cells were washed once by resuspension in 200 μL DPBS+0.5% BSA, centrifuged, and supernatant removed by flicking. Cells were resuspended in 100 μL 1X Permeabilization buffer (Invitrogen, catalog #88882400) and plates incubated at rt for 30 min. Plates were centrifuged, supernatant removed by flicking, and cells resuspended in 50 μL primary antibody, anti-phospho-c-KIT (Tyr703) (Cell Signaling, catalog #3073), diluted to 1 μg/mL with permeabilization buffer. Plates were incubated at rt for 1 h. Plates were centrifuged, supernatant removed, and cells resuspended with 200 μL DPBS+0.5% BSA. Plates were again centrifuged, supernatant removed by flicking, and cells resuspended in 100 μL secondary antibody, goat anti-rabbit AlexaFluor647 (AF647) (Invitrogen, catalog #A21244) diluted to 1 μg/mL with DPBS+0.5% BSA. Plates were incubated at rt for 30 min. followed by centrifugation, supernatant removal, and cell resuspension with 200 μL DPBS+0.5% BSA. Cells were washed again by centrifugation, supernatant removal, and cell resuspension with 200 μL DPBS+0.5% BSA. Samples were then read by flow cytometry. The Forward: Side scatter plot was gated and that population was gated for live cells based on the Live/Dead Green staining. The geometric mean of AF647 of the live cell population was recorded. Percentage maximum activity in each test well was calculated based on DMSO (100% activity) and positive control treated cell wells (0% activity). The potencies (IC50 values) of test compounds were determined using a standard 4-parameter non-linear regression fit.

Assay [3] has as its target PDGFRα (Homo sapiens (Human), UniProt P16234). Description: Inhibition of PDGFRα kinase activity (HTRF KinEASE-TK). The conditions noted are these: biochemical, HTRF KinEASE-TK. The method in brief:
as §1

For assay [4], the target named is CSF1R (Homo sapiens (Human), UniProt P07333). The assay is described as follows: Inhibition of CSF1R kinase activity (HTRF KinEASE-TK). The conditions noted are these: biochemical, HTRF KinEASE-TK. The method in brief:
as §1

The target of assay [5] is PDGFRβ (Homo sapiens (Human), UniProt P09619). The assay is described as follows: Inhibition of PDGFRβ kinase activity (HTRF KinEASE-TK). The conditions noted are these: biochemical, HTRF KinEASE-TK. The method in brief:
as §1

PDGFRα, sequence (P16234 24-1089): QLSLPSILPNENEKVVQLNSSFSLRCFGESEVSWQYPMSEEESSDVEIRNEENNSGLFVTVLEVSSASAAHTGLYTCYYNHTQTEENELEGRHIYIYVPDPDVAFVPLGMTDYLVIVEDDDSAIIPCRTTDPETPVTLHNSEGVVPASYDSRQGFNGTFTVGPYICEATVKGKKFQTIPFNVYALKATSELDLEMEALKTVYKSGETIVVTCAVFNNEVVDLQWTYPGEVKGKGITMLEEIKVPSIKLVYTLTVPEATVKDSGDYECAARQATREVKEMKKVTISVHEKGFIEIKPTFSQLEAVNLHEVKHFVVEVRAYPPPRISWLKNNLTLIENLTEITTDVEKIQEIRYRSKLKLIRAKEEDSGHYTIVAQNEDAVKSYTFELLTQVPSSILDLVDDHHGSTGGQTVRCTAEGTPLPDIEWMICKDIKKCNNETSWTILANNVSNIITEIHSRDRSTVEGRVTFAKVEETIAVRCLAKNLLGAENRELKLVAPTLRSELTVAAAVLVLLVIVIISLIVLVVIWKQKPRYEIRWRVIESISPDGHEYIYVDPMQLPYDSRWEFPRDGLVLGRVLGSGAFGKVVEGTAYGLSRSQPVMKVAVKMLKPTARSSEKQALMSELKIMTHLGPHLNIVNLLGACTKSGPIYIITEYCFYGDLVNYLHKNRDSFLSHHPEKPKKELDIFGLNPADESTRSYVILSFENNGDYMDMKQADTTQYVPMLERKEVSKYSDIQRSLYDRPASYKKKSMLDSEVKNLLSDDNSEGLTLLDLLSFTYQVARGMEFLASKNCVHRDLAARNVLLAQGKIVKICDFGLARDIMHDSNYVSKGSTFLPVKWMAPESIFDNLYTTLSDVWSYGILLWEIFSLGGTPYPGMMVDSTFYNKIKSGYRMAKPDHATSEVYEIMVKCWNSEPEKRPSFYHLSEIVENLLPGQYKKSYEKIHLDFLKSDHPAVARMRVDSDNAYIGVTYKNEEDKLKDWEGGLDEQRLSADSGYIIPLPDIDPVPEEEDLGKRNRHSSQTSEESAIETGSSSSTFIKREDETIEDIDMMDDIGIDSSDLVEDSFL
c-Kit, sequence (P10721 26-976): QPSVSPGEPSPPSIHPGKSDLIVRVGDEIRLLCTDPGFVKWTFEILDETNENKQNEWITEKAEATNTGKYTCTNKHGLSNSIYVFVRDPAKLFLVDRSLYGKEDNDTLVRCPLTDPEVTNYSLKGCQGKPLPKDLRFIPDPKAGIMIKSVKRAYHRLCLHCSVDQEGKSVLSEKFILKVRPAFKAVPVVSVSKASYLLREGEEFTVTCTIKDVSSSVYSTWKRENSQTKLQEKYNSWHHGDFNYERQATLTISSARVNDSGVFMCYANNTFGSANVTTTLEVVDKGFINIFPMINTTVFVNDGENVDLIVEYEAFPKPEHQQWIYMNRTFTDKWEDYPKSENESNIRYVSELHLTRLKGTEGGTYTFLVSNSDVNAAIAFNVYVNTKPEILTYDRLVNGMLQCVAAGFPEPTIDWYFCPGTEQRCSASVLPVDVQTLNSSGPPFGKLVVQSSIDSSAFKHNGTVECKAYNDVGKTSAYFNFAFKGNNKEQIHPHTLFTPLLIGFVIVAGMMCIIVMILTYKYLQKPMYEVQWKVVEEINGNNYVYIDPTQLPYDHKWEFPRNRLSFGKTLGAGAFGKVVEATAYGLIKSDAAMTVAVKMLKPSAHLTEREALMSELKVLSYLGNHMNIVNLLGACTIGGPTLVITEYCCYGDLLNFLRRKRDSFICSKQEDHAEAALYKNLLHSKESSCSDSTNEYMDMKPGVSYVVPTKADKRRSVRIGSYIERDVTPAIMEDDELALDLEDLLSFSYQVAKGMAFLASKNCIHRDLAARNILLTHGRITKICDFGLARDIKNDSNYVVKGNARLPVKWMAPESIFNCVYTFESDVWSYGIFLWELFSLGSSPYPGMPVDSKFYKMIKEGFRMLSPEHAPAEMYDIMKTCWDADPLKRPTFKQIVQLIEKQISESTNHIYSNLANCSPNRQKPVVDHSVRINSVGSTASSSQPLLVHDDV
PDGFRβ, sequence (P09619 33-1106): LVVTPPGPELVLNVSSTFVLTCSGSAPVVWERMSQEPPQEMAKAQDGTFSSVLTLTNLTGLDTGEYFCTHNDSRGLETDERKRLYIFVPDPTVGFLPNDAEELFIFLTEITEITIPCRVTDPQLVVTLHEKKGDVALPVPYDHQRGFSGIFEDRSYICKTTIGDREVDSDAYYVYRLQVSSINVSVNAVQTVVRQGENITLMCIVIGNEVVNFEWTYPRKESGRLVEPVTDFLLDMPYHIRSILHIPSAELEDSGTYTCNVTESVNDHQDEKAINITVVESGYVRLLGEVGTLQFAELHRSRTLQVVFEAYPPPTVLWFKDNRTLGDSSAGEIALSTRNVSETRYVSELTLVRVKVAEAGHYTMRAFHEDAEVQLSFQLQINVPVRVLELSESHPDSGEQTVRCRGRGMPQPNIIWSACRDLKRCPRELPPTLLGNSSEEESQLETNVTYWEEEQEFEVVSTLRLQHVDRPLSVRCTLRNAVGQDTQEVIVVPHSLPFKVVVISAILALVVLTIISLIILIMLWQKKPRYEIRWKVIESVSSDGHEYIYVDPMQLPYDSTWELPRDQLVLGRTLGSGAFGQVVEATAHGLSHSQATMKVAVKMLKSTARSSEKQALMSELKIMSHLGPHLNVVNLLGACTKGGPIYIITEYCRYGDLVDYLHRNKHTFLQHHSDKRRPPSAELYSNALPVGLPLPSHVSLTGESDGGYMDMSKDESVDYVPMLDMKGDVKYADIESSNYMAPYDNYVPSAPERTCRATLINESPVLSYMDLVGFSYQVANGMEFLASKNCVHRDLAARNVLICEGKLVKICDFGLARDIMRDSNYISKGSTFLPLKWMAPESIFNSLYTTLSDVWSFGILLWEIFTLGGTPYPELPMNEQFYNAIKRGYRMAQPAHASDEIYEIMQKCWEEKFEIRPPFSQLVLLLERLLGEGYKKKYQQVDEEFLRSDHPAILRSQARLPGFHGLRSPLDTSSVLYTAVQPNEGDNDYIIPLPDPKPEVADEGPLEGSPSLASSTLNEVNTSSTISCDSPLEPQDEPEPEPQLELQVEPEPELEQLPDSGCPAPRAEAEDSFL
CSF1R, sequence (P07333 20-972): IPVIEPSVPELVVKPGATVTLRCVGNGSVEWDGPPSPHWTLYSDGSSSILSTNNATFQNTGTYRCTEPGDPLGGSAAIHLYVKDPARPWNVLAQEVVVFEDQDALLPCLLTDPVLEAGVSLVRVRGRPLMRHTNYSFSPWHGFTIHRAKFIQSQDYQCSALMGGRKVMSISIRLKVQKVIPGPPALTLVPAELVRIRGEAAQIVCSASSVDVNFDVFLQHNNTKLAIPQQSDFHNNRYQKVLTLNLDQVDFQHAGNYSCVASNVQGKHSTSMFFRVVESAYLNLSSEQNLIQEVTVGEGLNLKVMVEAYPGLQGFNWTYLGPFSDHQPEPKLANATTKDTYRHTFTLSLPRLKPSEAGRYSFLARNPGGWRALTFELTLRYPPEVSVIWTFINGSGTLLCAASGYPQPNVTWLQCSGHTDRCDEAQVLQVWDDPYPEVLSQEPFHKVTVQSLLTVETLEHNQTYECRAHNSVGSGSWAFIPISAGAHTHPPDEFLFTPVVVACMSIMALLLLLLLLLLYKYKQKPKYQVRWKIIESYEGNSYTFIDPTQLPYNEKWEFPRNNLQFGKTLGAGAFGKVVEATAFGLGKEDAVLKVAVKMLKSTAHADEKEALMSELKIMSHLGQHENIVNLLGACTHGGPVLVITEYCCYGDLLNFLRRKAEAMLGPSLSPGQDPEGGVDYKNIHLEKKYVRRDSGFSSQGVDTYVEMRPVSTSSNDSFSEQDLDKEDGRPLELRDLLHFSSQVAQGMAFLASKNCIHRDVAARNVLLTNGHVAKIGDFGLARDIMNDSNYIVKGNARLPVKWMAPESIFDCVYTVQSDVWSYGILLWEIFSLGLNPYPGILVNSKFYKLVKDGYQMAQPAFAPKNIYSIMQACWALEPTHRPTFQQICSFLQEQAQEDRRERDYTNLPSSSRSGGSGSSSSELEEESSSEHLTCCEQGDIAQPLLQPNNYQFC

For the molecule `Cc1ncc(C(=O)Nc2cc(C(=O)Nc3ccc(OC(C)C)cn3)c(F)cc2Cl)s1` [Example 48, N-[2-chloro-4-fluoro-5-[(5-propan-2-yloxypyridin-2-yl)carbamoyl]phenyl]-2-methyl-1,3-thiazole-5-carboxamide], the IC50 in assay [1] is below 0.1 µM; in assay [2], below 0.1 µM; in assay [3], above 1 µM; in assay [4], above 1 µM; in assay [5] it was above 1 µM.
On to `Cc1ncc(C(=O)Nc2cc(C(=O)Nc3ccc(OC4CC4)cn3)c(F)cc2Cl)s1` [Example 49, N-[2-chloro-5-[(5-cyclopropyloxypyridin-2-yl)carbamoyl]-4-fluorophenyl]-2-methyl-1,3-thiazole-5-carboxamide], for which the IC50 in assay [1] was below 0.1 µM; in assay [2] it was below 0.1 µM; in assay [3] it was above 1 µM; in assay [4] it was above 1 µM; in assay [5], above 1 µM.
In the case of `Cc1ncc(C(=O)Nc2cc(C(=O)Nc3cc(CC4CC4)ncn3)c(F)cc2C)s1` [Example 50, N-(5-((6-(cyclopropylmethyl)pyrimidin-4-yl)carbamoyl)-4-fluoro-2-methylphenyl)-2-methylthiazole-5-carboxamide], the IC50 in assay [1] is below 0.1 µM; in assay [2], below 0.1 µM; in assay [3], 0.1 to 1 µM; in assay [4], 0.1 to 1 µM; in assay [5], 0.1 to 1 µM.
Turning to `Cc1ncc(C(=O)Nc2cc(C(=O)NCc3ccccc3F)c(F)cc2C)s1` [Example 51, N-(4-fluoro-5-((2-fluorobenzyl)carbamoyl)-2-methylphenyl)-2-methylthiazole-5-carboxamide], the IC50 in assay [1] was 0.1 to 1 µM; in assay [2], below 0.1 µM; in assay [3] it was above 1 µM; in assay [4], above 1 µM; in assay [5], above 1 µM.
As for `Cc1ncc(C(=O)Nc2cc(C(=O)Nc3cccc(CC(F)(F)F)n3)c(F)cc2C)s1` [Example 52, N-[4-fluoro-2-methyl-5-[[6-(2,2,2-trifluoroethyl)pyridin-2-yl]carbamoyl]phenyl]-2-methyl-1,3-thiazole-5-carboxamide], the IC50 was below 0.1 µM in assay [1]; below 0.1 µM in assay [2]; above 1 µM in assay [3]; above 1 µM in assay [4]; above 1 µM in assay [5].
With `Cc1ncc(C(=O)Nc2cc(C(=O)Nc3cnc(OC[C@@H]4CC4(F)F)cn3)c(F)cc2C)s1` [Example 58, N-[5-[[5-[[(1S)-2,2-difluorocyclopropyl]methoxy]pyrazin-2-yl]carbamoyl]-4-fluoro-2-methylphenyl]-2-methyl-1,3-thiazole-5-carboxamide], the IC50 in assay [1] was below 0.1 µM; in assay [2], below 0.1 µM; in assay [3], above 1 µM; in assay [4], above 1 µM; in assay [5] it was above 1 µM.
On to `Cc1ncc(C(=O)Nc2cc(C(=O)Nc3ccn(CC4CC4)n3)c(F)cc2C)s1` [Example 70, N-[5-[[1-(cyclopropylmethyl)pyrazol-3-yl]carbamoyl]-4-fluoro-2-methylphenyl]-2-methyl-1,3-thiazole-5-carboxamide], for which the IC50 is below 0.1 µM in assay [1]; below 0.1 µM in assay [2]; above 1 µM in assay [3]; above 1 µM in assay [4]; above 1 µM in assay [5].
Consider `Cc1ncc(C(=O)Nc2cc(C(=O)Nc3cnc(N4CC(O)C4)cn3)c(F)cc2C)s1` [Example 71, N-(4-fluoro-5-((5-(3-hydroxyazetidin-1-yl)pyrazin-2-yl)carbamoyl)-2-methylphenyl)-2-methylthiazole-5-carboxamide], for which the IC50 is below 0.1 µM in assay [1]; below 0.1 µM in assay [2]; above 1 µM in assay [3]; above 1 µM in assay [4]; above 1 µM in assay [5].
Regarding `Cc1ncc(C(=O)Nc2cc(C(=O)Nc3cnc(N4CC[C@@H](O)C4)cn3)c(F)cc2C)s1` [Example 72, (R)—N-(4-fluoro-5-((5-(3-hydroxypyrrolidin-1-yl)pyrazin-2-yl)carbamoyl)-2-methylphenyl)-2-methylthiazole-5-carboxamide], the IC50 in assay [1] is below 0.1 µM; in assay [2], below 0.1 µM; in assay [3] it was above 1 µM; in assay [4], above 1 µM; in assay [5], above 1 µM.
As for `COC1CN(c2cnc(NC(=O)c3cc(NC(=O)c4cnc(C)s4)c(C)cc3F)cn2)C1` [Example 73, N-(4-fluoro-5-((5-(3-methoxyazetidin-1-yl)pyrazin-2-yl)carbamoyl)-2-methylphenyl)-2-methylthiazole-5-carboxamide], the IC50 was below 0.1 µM in assay [1]; below 0.1 µM in assay [2]; above 1 µM in assay [3]; above 1 µM in assay [4]; above 1 µM in assay [5].
Consider `CO[C@@H]1CCN(c2cnc(NC(=O)c3cc(NC(=O)c4cnc(C)s4)c(C)cc3F)cn2)C1` [Example 74, (R)—N-(4-fluoro-5-((5-(3-methoxypyrrolidin-1-yl)pyrazin-2-yl)carbamoyl)-2-methylphenyl)-2-methylthiazole-5-carboxamide], for which the IC50 in assay [1] was below 0.1 µM; in assay [2], below 0.1 µM; in assay [3], above 1 µM; in assay [4] it was above 1 µM; in assay [5] it was above 1 µM.
On to `Cc1ncc(C(=O)Nc2cc(C(=O)Nc3cnc(N4CCC[C@H]4C)cn3)c(F)cc2C)s1` [Example 84, N-(5-{N-5-[(R)-2-methyl-1-pyrrolidinyl]-2-pyrazinylcarbamoyl}-4-fluoro-2-tolyl)-2-methyl-1,3-thiazole-5-carboxamide], for which the IC50 in assay [1] is below 0.1 µM; in assay [2], below 0.1 µM; in assay [3], above 1 µM; in assay [4], above 1 µM; in assay [5], above 1 µM.
Regarding `Cc1ncc(C(=O)Nc2cc(C(=O)Nc3cnc(N4CCCC4)cn3)c(F)cc2C)s1` [Example 85, N-{5-[N-5-(1-pyrrolidinyl)-2-pyrazinylcarbamoyl]-4-fluoro-2-tolyl}-2-methyl-1,3-thiazole-5-carboxamide], the IC50 in assay [1] is below 0.1 µM; in assay [2], below 0.1 µM; in assay [3], above 1 µM; in assay [4], above 1 µM; in assay [5] it was above 1 µM.
Consider `Cc1ncc(C(=O)Nc2cc(C(=O)Nc3cnc(OCC4CC4)cn3)c(F)cc2C)s1` [Example 88, N-{5-[N-5-(cyclopropylmethoxy)-2-pyrazinylcarbamoyl]-4-fluoro-2-tolyl}-2-methyl-1,3-thiazole-5-carboxamide], for which the IC50 in assay [1] is 0.1 to 1 µM; in assay [2] it was 0.1 to 1 µM; in assay [3], above 1 µM; in assay [4], above 1 µM; in assay [5] it was above 1 µM.
Turning to `COC[C@H]1CCCN1c1cnc(NC(=O)c2cc(NC(=O)c3cnc(C)s3)c(C)cc2F)cn1` [Example 90, N-(5-{N-5-[(R)-2-(methoxymethyl)-1-pyrrolidinyl]-2-pyrazinylcarbamoyl}-4-fluoro-2-tolyl)-2-methyl-1,3-thiazole-5-carboxamide], the IC50 in assay [1] was below 0.1 µM; in assay [2], 0.1 to 1 µM; in assay [3], above 1 µM; in assay [4] it was above 1 µM; in assay [5] it was above 1 µM.

Source of the values: patent US20250145606A1 (Arcus Biosciences, Inc., priority 2023, published 2025).
